# In EP4745137A1 (Gluetacs Therapeutics (Shanghai) Co., Ltd., priority 2023, dated 2025):
# What was measured:
# Assay type in all cases: cell-based
# Details in all cases: 24 hours of compound treatment, 50 nM and 500 nM tested (concentration behind the class not stated)
# WEE1 = target: T1, WEE1 (Homo sapiens, UniProt P30291+Q96SW2); assay: Western-blot assay of substrate protein degradation in hPBMCs, WEE1
# T1 construct: endogenous in cells; host or cells: hPBMCs (Milecell Biotechnologies)
# Method: (§1) After 24 hours of compounds treatment, cells were harvested and lysed in RIPA protein lysate containing protease inhibitors on ice for 30 min, followed by centrifugation. The supernatant was aspirated as the extracted total cell protein. The protein concentration of the supernatant was determined using the conventional BCA (Bicinchoninic Acid) assay. • (2) To the collected supernatant, 5X SDS sample loading buffer was added, followed by denaturation at 95°C for 5 minutes. The denatured samples were then separated by SDS-PAGE electrophoresis on a polyacrylamide gel, transferred onto a nitrocellulose membrane (0.45 µm NC membrane), blocked with blocking buffer at room temperature for 1 hour, and subjected to antibody incubation and development procedures according to the antibody manufacturer's instructions (Cell Signaling Technology Company). […]
# (§2) Target protein remaining (%) refers to the percentage of target protein remaining in cells after treatment with protein degrader compounds.
# (§3) Calculation method for target protein remaining (%): Use ImageJ software to measure grayscale values of Western blot bands from drug (protein degrader)-treated samples. The grayscale value of drug-treated bands is divided by that of internal control protein bands, and the resulting quotient is normalized to obtain the relative percentage of remaining target protein after protein degrader treatment. Target protein degradation rate(%) = 1−target protein remaining(%). [formula]
# IKZF1 = target: T2, IKZF1 (Homo sapiens, UniProt Q13422+Q96SW2); assay: Western-blot assay of substrate protein degradation in hPBMCs, IKZF1
# T2 construct: endogenous in cells; host or cells: hPBMCs (Milecell Biotechnologies)
# Method: as §1, §2, §3
# IKZF2 = target: T3, IKZF2 (Homo sapiens, UniProt Q96SW2+Q9UKS7); assay: Western-blot assay of substrate protein degradation in hPBMCs, IKZF2
# T3 construct: endogenous in cells; host or cells: hPBMCs (Milecell Biotechnologies)
# Method: as §1, §2, §3
# IKZF3 = target: T4, IKZF3 (Homo sapiens, UniProt Q96SW2+Q9UKT9); assay: Western-blot assay of substrate protein degradation in hPBMCs, IKZF3
# T4 construct: endogenous in cells; host or cells: hPBMCs (Milecell Biotechnologies)
# Method: as §1, §2, §3
# CK1α = target: T5, CK1α (Homo sapiens, UniProt P48729+Q96SW2); assay: Western-blot assay of substrate protein degradation in hPBMCs, CK1α
# T5 construct: endogenous in cells; host or cells: hPBMCs (Milecell Biotechnologies)
# Method: as §1, §2, §3
# GSPT1 = target: T6, GSPT1 (Homo sapiens, UniProt P15170+Q96SW2); assay: Western-blot assay of substrate protein degradation in hPBMCs, GSPT1
# T6 construct: endogenous in cells; host or cells: hPBMCs (Milecell Biotechnologies)
# Method: as §1, §2, §3
# T1 sequence (P30291 whole entry): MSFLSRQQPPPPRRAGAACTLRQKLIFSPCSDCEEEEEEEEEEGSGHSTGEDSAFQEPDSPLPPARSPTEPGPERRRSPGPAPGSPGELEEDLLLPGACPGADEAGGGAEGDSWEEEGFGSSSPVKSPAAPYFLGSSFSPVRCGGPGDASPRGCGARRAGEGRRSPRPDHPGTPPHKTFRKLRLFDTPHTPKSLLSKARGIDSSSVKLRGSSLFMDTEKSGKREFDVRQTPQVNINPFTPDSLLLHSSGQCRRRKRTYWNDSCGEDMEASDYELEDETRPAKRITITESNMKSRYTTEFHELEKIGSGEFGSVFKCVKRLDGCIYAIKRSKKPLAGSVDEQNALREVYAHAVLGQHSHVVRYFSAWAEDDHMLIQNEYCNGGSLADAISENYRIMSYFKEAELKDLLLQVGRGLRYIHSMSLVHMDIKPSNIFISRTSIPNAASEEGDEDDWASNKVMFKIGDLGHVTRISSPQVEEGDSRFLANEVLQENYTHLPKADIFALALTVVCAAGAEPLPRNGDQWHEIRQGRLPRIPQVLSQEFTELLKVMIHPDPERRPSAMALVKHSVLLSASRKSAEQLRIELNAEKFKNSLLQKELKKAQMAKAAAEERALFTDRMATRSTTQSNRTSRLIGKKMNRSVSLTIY
# T1 sequence (Q96SW2 whole entry): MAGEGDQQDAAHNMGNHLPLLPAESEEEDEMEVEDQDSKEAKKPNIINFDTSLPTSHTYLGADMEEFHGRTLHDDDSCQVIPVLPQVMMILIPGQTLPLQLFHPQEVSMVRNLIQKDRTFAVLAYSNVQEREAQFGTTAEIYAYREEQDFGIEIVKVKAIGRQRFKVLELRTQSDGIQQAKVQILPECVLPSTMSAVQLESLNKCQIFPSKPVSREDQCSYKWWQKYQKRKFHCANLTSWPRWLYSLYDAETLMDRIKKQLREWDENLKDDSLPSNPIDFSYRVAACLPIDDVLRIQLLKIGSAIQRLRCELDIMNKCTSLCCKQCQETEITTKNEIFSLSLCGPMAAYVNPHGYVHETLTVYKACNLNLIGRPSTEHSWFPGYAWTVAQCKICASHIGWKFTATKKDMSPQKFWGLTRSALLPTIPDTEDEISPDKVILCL
# T1 sequence (Q16531 whole entry partner): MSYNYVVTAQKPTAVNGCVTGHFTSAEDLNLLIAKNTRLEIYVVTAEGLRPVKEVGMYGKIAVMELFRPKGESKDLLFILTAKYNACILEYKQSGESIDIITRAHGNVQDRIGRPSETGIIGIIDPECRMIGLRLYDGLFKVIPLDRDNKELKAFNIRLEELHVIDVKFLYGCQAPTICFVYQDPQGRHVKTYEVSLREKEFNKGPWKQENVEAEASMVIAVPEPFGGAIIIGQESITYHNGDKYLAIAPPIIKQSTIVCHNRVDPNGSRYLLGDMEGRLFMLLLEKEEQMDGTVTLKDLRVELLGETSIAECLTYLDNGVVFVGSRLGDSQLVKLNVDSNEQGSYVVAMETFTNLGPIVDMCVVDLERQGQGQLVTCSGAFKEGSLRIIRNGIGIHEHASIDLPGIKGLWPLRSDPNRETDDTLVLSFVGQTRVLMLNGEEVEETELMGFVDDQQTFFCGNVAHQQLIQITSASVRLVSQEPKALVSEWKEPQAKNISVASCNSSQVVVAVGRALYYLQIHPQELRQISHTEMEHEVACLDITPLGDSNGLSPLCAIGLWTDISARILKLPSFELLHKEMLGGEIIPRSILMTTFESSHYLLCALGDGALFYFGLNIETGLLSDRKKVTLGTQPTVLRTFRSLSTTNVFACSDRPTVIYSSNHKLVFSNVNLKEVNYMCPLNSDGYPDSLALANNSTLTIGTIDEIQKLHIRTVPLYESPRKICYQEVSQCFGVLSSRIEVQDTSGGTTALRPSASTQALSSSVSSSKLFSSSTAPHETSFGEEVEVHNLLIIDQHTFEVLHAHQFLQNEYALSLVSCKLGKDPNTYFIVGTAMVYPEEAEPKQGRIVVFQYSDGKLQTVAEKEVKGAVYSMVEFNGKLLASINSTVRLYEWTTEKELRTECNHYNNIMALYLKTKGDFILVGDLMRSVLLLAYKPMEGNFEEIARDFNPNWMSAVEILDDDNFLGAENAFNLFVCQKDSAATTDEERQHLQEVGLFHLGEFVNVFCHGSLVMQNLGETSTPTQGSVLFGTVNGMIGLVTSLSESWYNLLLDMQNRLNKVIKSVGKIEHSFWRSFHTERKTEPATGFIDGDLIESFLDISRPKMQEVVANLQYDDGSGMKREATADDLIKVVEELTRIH
# T3 sequence (Q9UKS7 whole entry): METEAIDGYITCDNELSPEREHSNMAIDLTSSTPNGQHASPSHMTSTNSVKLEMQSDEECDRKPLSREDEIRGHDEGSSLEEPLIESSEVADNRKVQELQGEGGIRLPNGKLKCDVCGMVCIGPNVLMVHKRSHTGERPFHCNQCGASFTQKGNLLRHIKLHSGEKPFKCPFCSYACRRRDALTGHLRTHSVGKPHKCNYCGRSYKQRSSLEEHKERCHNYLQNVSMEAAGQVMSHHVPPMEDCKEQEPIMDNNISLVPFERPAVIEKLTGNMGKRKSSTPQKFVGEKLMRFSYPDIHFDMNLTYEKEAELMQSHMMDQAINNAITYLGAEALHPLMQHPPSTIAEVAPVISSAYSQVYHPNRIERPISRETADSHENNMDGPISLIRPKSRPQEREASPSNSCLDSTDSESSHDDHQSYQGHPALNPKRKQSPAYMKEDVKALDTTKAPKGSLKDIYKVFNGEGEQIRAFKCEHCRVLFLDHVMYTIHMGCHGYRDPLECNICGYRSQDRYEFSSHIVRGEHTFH
# T3 sequence (Q96SW2 whole entry): as the sequence (Q96SW2 whole entry) above
# T3 sequence (Q16531 whole entry partner): as the sequence (Q16531 whole entry partner) above
# T6 sequence (P15170 whole entry): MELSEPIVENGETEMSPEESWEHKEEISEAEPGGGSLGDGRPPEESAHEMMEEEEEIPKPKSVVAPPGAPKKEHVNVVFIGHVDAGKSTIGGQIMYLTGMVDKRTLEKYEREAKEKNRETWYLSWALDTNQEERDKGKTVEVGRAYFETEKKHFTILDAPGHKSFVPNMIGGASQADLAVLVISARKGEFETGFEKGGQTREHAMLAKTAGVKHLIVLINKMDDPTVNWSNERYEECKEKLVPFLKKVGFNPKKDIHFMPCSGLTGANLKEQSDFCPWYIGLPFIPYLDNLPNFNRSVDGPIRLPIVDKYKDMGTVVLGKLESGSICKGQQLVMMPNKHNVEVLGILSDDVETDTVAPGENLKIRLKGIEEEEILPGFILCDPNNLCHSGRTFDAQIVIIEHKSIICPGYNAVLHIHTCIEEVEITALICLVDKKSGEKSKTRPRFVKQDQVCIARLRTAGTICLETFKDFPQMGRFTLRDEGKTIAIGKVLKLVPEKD
# T6 sequence (Q96SW2 whole entry): as the sequence (Q96SW2 whole entry) above
# T6 sequence (Q16531 whole entry partner): as the sequence (Q16531 whole entry partner) above
# T2 sequence (Q13422 whole entry): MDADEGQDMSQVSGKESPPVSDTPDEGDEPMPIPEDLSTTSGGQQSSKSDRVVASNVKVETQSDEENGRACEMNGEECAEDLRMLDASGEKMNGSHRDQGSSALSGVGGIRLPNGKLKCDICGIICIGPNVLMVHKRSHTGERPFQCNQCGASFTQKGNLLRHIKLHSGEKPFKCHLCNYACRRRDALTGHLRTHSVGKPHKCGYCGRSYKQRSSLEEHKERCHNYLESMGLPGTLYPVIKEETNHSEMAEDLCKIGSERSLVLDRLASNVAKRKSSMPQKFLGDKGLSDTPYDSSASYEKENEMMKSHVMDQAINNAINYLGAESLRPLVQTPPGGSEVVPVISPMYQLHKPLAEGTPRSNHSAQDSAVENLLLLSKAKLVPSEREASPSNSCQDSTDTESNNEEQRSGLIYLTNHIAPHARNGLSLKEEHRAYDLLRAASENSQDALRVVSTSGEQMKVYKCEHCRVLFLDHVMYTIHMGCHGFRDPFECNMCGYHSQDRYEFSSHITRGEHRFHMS
# T2 sequence (Q96SW2 whole entry): as the sequence (Q96SW2 whole entry) above
# T2 sequence (Q16531 whole entry partner): as the sequence (Q16531 whole entry partner) above
# T5 sequence (P48729 whole entry): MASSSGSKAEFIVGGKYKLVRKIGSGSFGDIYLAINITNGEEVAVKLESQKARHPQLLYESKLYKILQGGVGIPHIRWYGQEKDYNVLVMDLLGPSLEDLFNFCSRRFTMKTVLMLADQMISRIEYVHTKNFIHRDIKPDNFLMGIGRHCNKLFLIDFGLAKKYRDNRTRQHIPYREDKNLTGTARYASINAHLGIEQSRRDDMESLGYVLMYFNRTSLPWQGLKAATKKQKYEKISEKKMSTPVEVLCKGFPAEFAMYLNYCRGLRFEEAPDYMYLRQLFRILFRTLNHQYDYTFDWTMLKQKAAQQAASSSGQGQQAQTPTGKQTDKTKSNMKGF
# T5 sequence (Q96SW2 whole entry): as the sequence (Q96SW2 whole entry) above
# T5 sequence (Q16531 whole entry partner): as the sequence (Q16531 whole entry partner) above
Structure (SMILES),Weel substrate protein remaining % (WEE1),IKZF 1 substrate protein remaining % (IKZF1),IKZF2 substrate protein remaining % (IKZF2),IKZF3 substrate protein remaining % (IKZF3),CK1a substrate protein remaining % (CK1α),GSPT1 substrate protein remaining % (GSPT1)
"O=C1CCC(N2C(=O)c3ccc(CN4CCC(c5ccoc5)CC4)cc3C2=O)C(=O)N1 (stereo not drawn) [GT-06285, 2-(2,6-dioxopiperidin-3-yl)-5-((4-(furan-3-yl)piperidin-1-yl)methyl)isoindoline-1,3-dione]",B (80%< substrate protein remaining %≤ 100%),B (80%< substrate protein remaining %≤ 100%),B (80%< substrate protein remaining %≤ 100%),B (80%< substrate protein remaining %≤ 100%),B (80%< substrate protein remaining %≤ 100%),A (0% ≤ substrate protein remaining % ≤ 80%)
"O=C1CCC(N2C(=O)c3ccc(CN4CCN(c5cc(F)ccc5F)CC4)cc3C2=O)C(=O)N1 (stereo not drawn) [GT-06362, 5-((4-(2,5-difluorophenyl)piperazin-1-yl)methyl)-2-(2,6-dioxopiperidin-3-yl)isoindoline-1,3-dione]",B (80%< substrate protein remaining %≤ 100%),B (80%< substrate protein remaining %≤ 100%),B (80%< substrate protein remaining %≤ 100%),B (80%< substrate protein remaining %≤ 100%),B (80%< substrate protein remaining %≤ 100%),A (0% ≤ substrate protein remaining % ≤ 80%)
"O=C1CCC(N2C(=O)c3ccc(CN4CCC(c5ccc(Cl)cc5)CC4)cc3C2=O)C(=O)N1 (stereo not drawn) [GT-06372, 5-((4-(4-chlorophenyl)piperidin-1-yl)methyl)-2-(2,6-dioxopiperidin-3-yl)isoindoline-1,3-dione]",A (0% ≤ substrate protein remaining % ≤ 80%),A (0% ≤ substrate protein remaining % ≤ 80%),A (0% ≤ substrate protein remaining % ≤ 80%),B (80%< substrate protein remaining %≤ 100%),B (80%< substrate protein remaining %≤ 100%),A (0% ≤ substrate protein remaining % ≤ 80%)
"O=C1CCC(N2C(=O)c3ccc(CN4CCN(c5c(Cl)cncc5Br)CC4)cc3C2=O)C(=O)N1 (stereo not drawn) [GT-06599, 5-((4-(3-bromo-5-chloropyridin-4-yl)piperazin-1-yl)methyl)-2-(2,6-dioxopiperidin-3-yl)isoindoline-1,3-dione]",B (80%< substrate protein remaining %≤ 100%),B (80%< substrate protein remaining %≤ 100%),B (80%< substrate protein remaining %≤ 100%),B (80%< substrate protein remaining %≤ 100%),B (80%< substrate protein remaining %≤ 100%),A (0% ≤ substrate protein remaining % ≤ 80%)
"Cc1nc(C2CCN(Cc3ccc4c(c3)C(=O)N(C3CCC(=O)NC3=O)C4=O)CC2)c2c3c(sc2n1)CCCC3 (stereo not drawn) [GT-06648, 2-(2,6-dioxopiperidin-3-yl)-5-((4-(2-methyl-5,6,7,8-tetrahydrobenzo[4,5]thieno[2,3-d]pyrimidin-4-yl)piperidin-1-yl)methyl)isoindoline-1,3-dione]",A (0% ≤ substrate protein remaining % ≤ 80%),B (80%< substrate protein remaining %≤ 100%),A (0% ≤ substrate protein remaining % ≤ 80%),B (80%< substrate protein remaining %≤ 100%),A (0% ≤ substrate protein remaining % ≤ 80%),A (0% ≤ substrate protein remaining % ≤ 80%)
